According to paper PMC7684313, “In vitro and in vivo pharmacological activity of minor cannabinoids isolated from Cannabis sativa” (Scientific Reports, 2020):
Entries after “also recorded” stand apart in the source; their conditions may differ. Read-outs that look alike come from different tables or passages of the source. Marks after values point to notes of the source that are not given here.

Tests used:
[1] = tested on: C57BL/6 mice; assay: Locomotion in the open field test (OFT); type: in vivo
Method: (§1) Asterisk colour matches the treatment group assessed.
(§2) Concentration–response curves (CRC) were fit using non-linear regression with variable slope (4 parameters) and used to calculate EC50, Emin, and Emax (GraphPad, Prism, v. 8.0). […] In vivo data are presented as % MPE for catalepsy (MPE = 60 s) and anti-nociception (MPE = 20 s), °C for body temperature, and distance travelled (m) and % time in the centre quadrant in 5 min for OFT. Post-hoc analyses were performed using Tukey’s (one-way ANOVA) test. Homogeneity of variance was confirmed using Bartlett’s test. All data were evaluated for possible outliers using Grubb’s test in GraphPad.

[2] = tested on: C57BL/6 mice; assay: Nociception in the tail flick assay (tetrad); type: in vivo
Method: as §1, §2

[3] = biological target: T1, hCB2R (Homo sapiens, UniProt P34972); assay: [^3H]CP55,940 displacement from hCB2R CHO cell membranes; details: for hCB2R Emin: bottom of the concentration–response curve of [^3H]CP55,940 displacement, %CP55,940 response, mean ± SEM; for extent of [^3H]CP55,940 displacement from hCB2R, in words: concentration range 0.1 nM–10 µM
[4] = tested on: C57BL/6 mice; assay: Body temperature (tetrad); type: in vivo
Method: as §1, §2

[5] = tested on: C57BL/6 mice; assay: Catalepsy in the ring holding assay (tetrad); type: in vivo; details: MPE 60 s = 100%
Method: as §1, §2

[6] = biological target: T2, hCB1R (Homo sapiens, UniProt P21554); assay: biochemical; type: binding
T2 construct: expressed in transfected cells; membranes

[7] = biological target: T1, hCB2R; assay: biochemical
[8] = biological target: T1, hCB2R; assay: hCB2R-dependent inhibition of FSK-stimulated cAMP accumulation (HitHunter CHO cells); type: cell-based; set-up: expressed in transfected cells; membranes; details: for agonist activity in hCB2R cAMP inhibition, in words: 0.1 nM–10 µM, relative to CP55,940; for Emax: CHO
[9] = biological target: T2, hCB1R; assay: cell-based; details: for Emax: CHO, read-out: hCB1R Emax, recruitment of βarrestin2
[10] = biological target: T2, hCB1R; assay: cell-based; type: cell-based; details: for Emax: CHO, read-out: hCB1R Emax, inhibition of FSK-stimulated cAMP accumulation
[11] = biological target: T2, hCB1R; assay: Ligand bias between cAMP inhibition and βarrestin2 recruitment at hCB1R (operational model); type: cell-based; details: ∆∆LogR > 0 bias for inhibition of cAMP, < 0 bias for βarrestin2; CP55,940 reference agonist
Method: (§3) Figure 8 Analysis of ligand bias for phytocannabinoids at hCB1R (a) and hCB2R (b).
as §2

[12] = biological target: T1, hCB2R; assay: hCB2R-dependent recruitment of βarrestin2 (PathHunter CHO cells); type: cell-based; set-up: expressed in transfected cells; membranes; details: for Emax: CHO; for activity in hCB2R βarrestin2 recruitment, in words: 0.1 nM–10 µM, relative to CP55,940
[13] = tested on: C57BL/6 mice; assay: Time in the centre quadrant of the OFT (anxiety-like behaviour); type: in vivo; details: 1 h post-injection
Method: as §1, §2

[14] = biological target: T1, hCB2R; assay: Ligand bias between cAMP inhibition and βarrestin2 recruitment at hCB2R (operational model); type: cell-based; set-up: expressed in transfected cells; membranes; details: ∆∆LogR > 0 bias for inhibition of cAMP, < 0 bias for βarrestin2; CP55,940 reference agonist
Method: as §3, §2

[15] = tested on: C57BL/6 mice; assay: Tetrad of assays, overall
[16] = dose range 0.1–10 mg/kg i.p., 15 min post-injection
[17] = 10 mg/kg i.p., 1 h post-injection
[18] = HitHunter CHO hCB2R cells, 90 min, 95% CI in brackets, read-out: hCB2R EC50, inhibition of FSK-stimulated cAMP accumulation
[19] = PathHunter CHO hCB1R cells, 90 min, 95% CI in brackets, read-out: hCB1R EC50, recruitment of βarrestin2
[20] = HitHunter CHO hCB1R cells, 90 min, 95% CI in brackets, read-out: hCB1R EC50, inhibition of FSK-stimulated cAMP accumulation
[21] = PathHunter CHO hCB2R cells, 90 min, 95% CI in brackets, read-out: hCB2R EC50, recruitment of βarrestin2

T1 sequence (P34972 whole entry): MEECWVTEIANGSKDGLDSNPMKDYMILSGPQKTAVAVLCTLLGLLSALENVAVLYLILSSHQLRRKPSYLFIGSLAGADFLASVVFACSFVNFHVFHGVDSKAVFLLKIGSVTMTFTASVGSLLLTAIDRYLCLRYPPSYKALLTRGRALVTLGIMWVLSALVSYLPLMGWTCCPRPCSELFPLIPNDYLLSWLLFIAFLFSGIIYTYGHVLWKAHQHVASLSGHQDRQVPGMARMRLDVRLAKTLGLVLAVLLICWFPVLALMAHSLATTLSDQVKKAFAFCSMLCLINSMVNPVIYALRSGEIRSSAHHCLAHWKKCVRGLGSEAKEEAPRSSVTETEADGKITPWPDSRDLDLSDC
T2 sequence (P21554 whole entry): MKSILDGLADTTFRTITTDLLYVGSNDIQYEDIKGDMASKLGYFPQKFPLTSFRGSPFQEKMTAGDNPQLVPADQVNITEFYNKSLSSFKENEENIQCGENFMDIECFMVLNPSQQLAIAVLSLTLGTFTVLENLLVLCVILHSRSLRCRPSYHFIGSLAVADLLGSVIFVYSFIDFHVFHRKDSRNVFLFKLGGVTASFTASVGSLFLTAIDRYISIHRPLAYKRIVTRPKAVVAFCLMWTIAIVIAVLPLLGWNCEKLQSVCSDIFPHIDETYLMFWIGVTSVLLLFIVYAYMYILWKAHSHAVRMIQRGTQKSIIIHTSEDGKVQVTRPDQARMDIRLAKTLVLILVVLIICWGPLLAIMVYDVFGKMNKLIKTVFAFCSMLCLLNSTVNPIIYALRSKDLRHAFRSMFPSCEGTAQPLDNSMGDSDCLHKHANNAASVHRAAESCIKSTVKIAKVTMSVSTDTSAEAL

Compound	hCB2R Emin [3]	hCB1R Emin [6]	anti-nociceptive effect (tail flick latency), in words [2, 16]	Ki [7] [nM]	Emax [8] [%]	Ki [6] [nM]	extent of [^3H]CP55,940 displacement from hCB1R, in words [6]	Emax [9] [%]	Emax [10] [%]	ligand bias at hCB1R (∆∆LogR), in words [11]	Emax [12] [%]	ligand bias at hCB2R (∆∆LogR), in words [14]	extent of [^3H]CP55,940 displacement from hCB2R, in words [3]	EC50 [8, 18] [nM]	EC50 [9, 19] [nM]	EC50 [10, 20] [nM]	EC50 [12, 21] [nM]	activity in hCB2R βarrestin2 recruitment, in words [12]	further results
CCCCCCC(C)(C)c1ccc([C@@H]2C[C@H](O)CC[C@H]2CCCO)c(O)c1 [CP55,940, reference compound]	0.0 ± 6.2%	0.0 ± 5.2%	–	–	–	–	–	–	–	–	–	–	–	–	–	–	–	–	total locomotion in the OFT, in words ([1]; 0.1 mg/kg i.p., 1 h post-injection): reduced total locomotion; anti-nociceptive effect (tail flick latency), in words ([2]; 0.1 mg/kg i.p., 15 min post-injection): anti-nociceptive effects; effect on body temperature, in words ([4]; 0.1 mg/kg i.p.): decreased body temperature; cataleptic response, % of maximum possible effect (MPE) ([5]; 0.1 mg/kg i.p.): 25%
CCCCCc1cc2c(c(O)c1C(=O)O)[C@@H]1C=C(C)CC[C@H]1C(C)(C)O2 [∆^9-THCa, ∆^9-tetrahydrocannabinolic acid]	49 ± 7.2*^ %	67 ± 11*^ %	dose-dependent increase in anti-nociceptive effects	1.3	95 ± 1.5	620	partially displaced	4.1 ± 1.5	35 ± 11	bias for the inhibition of cAMP relative to βarrestin2	15 ± 2.5	–	–	–	–	–	–	–	total locomotion in the OFT, in words ([1]; 3 and 10 mg/kg i.p.): hypolocomotive effects; anti-nociceptive effect (tail flick latency), in words ([2]; 3 and 10 mg/kg i.p.): anti-nociceptive; EC50 [8]: 1800 nM; agonist activity in hCB2R cAMP inhibition, in words [8]: weakly potent agonist; EC50 [9]: > 10000 nM; EC50 [10]: > 10000 nM; agonist activity in hCB1R cAMP inhibition, in words [10]: weak partial agonist; EC50 [12]: > 10000 nM; time in the central quadrant of the OFT (modelled anxiolytic effect), in words ([13]; 10 mg/kg i.p.): anxiolytic-like effects
CCCCCc1cc(O)c2c(c1)OC(C)(CCC=C(C)C)C=C2 (stereo not shown) [CBC, cannabichromene]	9.7 ± 5.9 %	55 ± 3.7*^ %	–	–	76 ± 5.4	11	partially displaced	6.9 ± 0.96	68 ± 9.7	bias for the inhibition of cAMP relative to βarrestin2	12 ± 2.8	bias for inhibition of cAMP relative to βarrestin2	displaced [^3H]CP55,940 from hCB2R to an extent that was not different from CP55,940	7.1	> 10000	190	> 10000	–	total locomotion in the OFT, in words [1, 17]: Hypolocomotive responses; anti-nociceptive effect (tail flick latency), in words ([2]; 3 mg/kg i.p., 15 min post-injection): weak anti-nociceptive effect
CCCCCc1cc(O)c2c(c1)OC(C)(C)[C@@H]1CCC(C)=C[C@@H]21 [∆^9-THC, ∆^9-tetrahydrocannabinol, reference compound]	7.4 ± 4.4%	–	dose-dependent increase in anti-nociceptive effects	–	76 ± 8.6	–	–	–	–	–	46 ± 4.9	bias for inhibition of cAMP relative to βarrestin2	displaced [^3H]CP55,940 from hCB2R to an extent that was not different from CP55,940	–	–	–	–	modest agonist activity	effect on body temperature, in words ([4]; 3 and 10 mg/kg i.p.): decreased body temperature; cataleptic response, % of maximum possible effect (MPE) ([5]; 3 mg/kg i.p.): 17%; cataleptic response, % of maximum possible effect (MPE) ([5]; 10 mg/kg i.p.): 100%
C=C(C)[C@@H]1CCC(C)=C[C@H]1c1c(O)cc(CCC)cc1O [CBDV, cannabidivarin]	22 ± 9.3 %	96 ± 5.1*^ %	–	140	51 ± 12	> 10000	weakly displaced [^3H]CP55,940 at concentrations ≥ 1 µM	0.96 ± 0.75	68 ± 5.7	–	64 ± 13	bias for inhibition of cAMP relative to βarrestin2	displaced [^3H]CP55,940 from hCB2R to an extent that was not different from CP55,940	5	> 10000	> 10000	> 10000	demonstrable efficacy at hCB2R in the βarrestin2 recruitment assay, but with very low potency	in vivo responses in the tetrad assays, in words ([15]; doses tested 0.1–10 mg/kg i.p.): no significant in vivo responses
C=C(C)[C@@H]1CCC(C)=C[C@H]1c1c(O)cc(CCCCC)c(C(=O)O)c1O [CBDa, cannabidiolic acid]	30 ± 7.8 %	96 ± 6.5*^ %	–	12	32 ± 4.2	> 10000	weakly displaced [^3H]CP55,940 at concentrations ≥ 1 µM	0.1 ± 0.11	22 ± 1.1	bias for the inhibition of cAMP relative to βarrestin2	18 ± 2.5	bias for inhibition of cAMP relative to βarrestin2	displaced [^3H]CP55,940 from hCB2R to an extent that was not different from CP55,940	140	> 10000	30	> 10000	–	total locomotion in the OFT, in words [1, 17]: Hypolocomotive responses
C=C(C)[C@@H]1CCC(C)=C[C@H]1c1c(O)cc(CCCCC)cc1O [CBD, cannabidiol, reference compound]	54 ± 9.3*^ %	–	–	–	61 ± 2.3	–	weakly displaced [^3H]CP55,940 at concentrations ≥ 1 µM	1 ± 1.6	26 ± 1.6	–	23 ± 2.8	–	–	–	–	–	–	modest agonist activity	effects in the tetrad of assays, in words ([15]; between 1 and 10 mg/kg): no effects
CCCc1cc(O)c2c(c1)OC(C)(C)[C@@H]1CCC(C)=C[C@@H]21 [THCV, ∆^9-tetrahydrocannabivarin]	27 ± 9.5%	54 ± 4.1*^ %	dose-dependent increase in anti-nociceptive effects	47	79 ± 1.3	22	partially displaced	0.05 ± 2.1	59 ± 3.9	–	50 ± 6.8	–	displaced [^3H]CP55,940 from hCB2R to an extent that was not different from CP55,940	–	> 10000	260	–	demonstrable efficacy at hCB2R in the βarrestin2 recruitment assay, but with very low potency; also recorded: agonist	total locomotion in the OFT, in words ([1]; 3 and 10 mg/kg i.p.): hypolocomotive; anti-nociceptive effect (tail flick latency), in words ([2]; 3 and 10 mg/kg i.p.): anti-nociceptive; effect on body temperature, in words ([4]; 10 mg/kg i.p.): decreased body temperature; also recorded: hypothermic; EC50 [8]: 280 nM; agonist activity in hCB2R cAMP inhibition, in words [8]: agonist; cataleptic response, % of maximum possible effect (MPE) ([5]; 10 mg/kg i.p.): 39%; agonist activity in hCB1R cAMP inhibition, in words [10]: weak partial agonist response; EC50 [12]: > 10000 nM; time in the central quadrant of the OFT (modelled anxiolytic effect), in words ([13]; 3 and 10 mg/kg i.p.): anxiolytic
